From patent US20250066291A1, “TARGETED COVALENT INHIBITORS FOR CARBONIC ANHYDRASES” (VILNIUS UNIVERSITY, priority 2023, published 2025)

What was measured:
[1] = target: T1, CAIX (Homo sapiens, UniProt Q16790); experiment: Stopped-flow CO2 hydration, CAIX activity before and after dialysis; format: biochemical; conditions: for CAIX catalytic activity after 32 hours of dialysis: […] CAIX incubated 2 h with 15 μM AV19-37 or 100 μM AV19-36, dialyzed in Tris buffer pH 7
Experimental: A—CAIX incubated for 2 hours with compounds and the CO2 hydration was measured. B—CAIX was incubated for 2 hours with the compound and then the complex was dialyzed for 32 hours in Tris buffer (pH 7.0). Black curves represent CAIX catalyzed CO2 hydration reaction. Grey curves are spontaneous CO2 hydration without the CA enzyme.
CO2 hydration velocities were measured by recording absorbance of phenol red (final concentration 50 μM) at 557 nm by using Applied Photophysics SX.18 MV-R stopped-flow spectrometer.

[2] = target: T1, CAIX; experiment: Isothermal titration calorimetry (ITC) binding to CAIX; conditions: pH 7.0, TRIS chloride buffer, 37° C., FIG. 1D
Experimental: A—Raw data of CAIX unfolding in the presence of different compound concentrations. B—dependence of CAIX melting temperature Tm on ligand concentration. […] C—raw ITC curve at pH 7.0, TRIS chloride buffer, at 37° C. D—Integrated ITC curve.

[3] = target: CAIII (Homo sapiens, UniProt P07451); experiment: Mass spectrometry (Q-TOF) of covalent modification of CAIII; format: binding; conditions: CAIII in the presence of ligand
CAIII, sequence (P07451 whole entry): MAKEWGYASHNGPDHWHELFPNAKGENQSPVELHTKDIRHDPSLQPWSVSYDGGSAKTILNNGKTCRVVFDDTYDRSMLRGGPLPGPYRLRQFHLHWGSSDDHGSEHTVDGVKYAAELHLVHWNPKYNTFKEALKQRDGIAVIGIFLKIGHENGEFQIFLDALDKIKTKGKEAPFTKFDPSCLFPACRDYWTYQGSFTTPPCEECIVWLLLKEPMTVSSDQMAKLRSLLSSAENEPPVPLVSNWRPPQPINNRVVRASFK

compound binding stoichiometry [2]	CAIX catalytic activity after 2 hours of incubation with compound ([1]; […] CAIX, 15 μM compound, CO2 hydration, 25° C., pH 7.5)	covalent modification by MS [3]	SMILES	CAIX catalytic activity after 32 hours of dialysis [1]
–	–	–	CC(=O)OCCSc1c(F)c(F)c(S(N)(=O)=O)c(F)c1F [AV19-36, 2-((2,3,5,6-tetrafluoro-4-sulfamoylphenyl)thio)ethyl acetate]	partially restored its catalytic activity
~1	lost its catalytic activity	did not show a covalent modification	CC(=O)OCCS(=O)(=O)c1c(F)c(F)c(S(N)(=O)=O)c(F)c1NC1CCCCCCC1 [AV19-37, 2-((2-(cyclooctylamino)-3,5,6-trifluoro-4-sulfamoylphenyl)sulfonyl)ethyl acetate]	not restored
